Measurements as given in patent publication US7141541B1, “Use of peptides” (University Court of the University of Dundee, priority 1999, dated 2006).
Where no end group is shown, it is not given here.

Legend:
[1] = target: T1, eIF4E in MRC5 cell lysate (Homo sapiens, UniProt P06730); assay: pull-down of eIF4E from MRC5 cell lysate; assay type: binding; conditions: 0.2 mM peptide, 200 μg MRC5 cell lysate, 1 h at 4° C.
T1 construct: endogenous in cells; host or cells: MRC5
Procedure: (§1) Sequences of biotinylated, penetratin-linked peptides. U=Norvaline, a substitution for cysteine. Conserved residues that are important in binding to eIF4E are underlined. b). In vitro binding assay. i) 1 μg recombinant eIF4E was incubated with 0.2 mM biotinylated peptides in a total volume of 50 μl wash buffer (1×PBS/250 mM Kcl) for 1 h at 4° C. ii) 0.2 mM Hu4G or Hu4G YLL-AAA was incubated with 200 μg MRC5 cell lysate for 1 h at 4° C. in a total volume of 50 μl wash buffer. In all cases the biotinylated peptides and associated proteins were pulled down using streptavidin agarose. The proteins were separated by SDS PAGE and subjected to Western blotting using anti-eIF4E antibody. Detection was by ECL;

MRC5 cells [2] = assay: TUNEL analysis; assay type: cell-based; conditions: 10 μM peptide, 10 min
Procedure: (§2) MRC5 cells were incubated with 10 μM Hu4G peptide for 10 min. Cells visualised with fluorescein by fluorescence microscopy. […] 80% of cells incubated with the 10 μM Hu4G peptide fluoresced positive. d) Images of DAPI-stained MRC5 cells incubated with either 20 μM Hu4G or Hu4G YLL-AAA peptide for 40 min. Arrows indicate the position of a cell with either a condensed nucleus (top right) or a nucleus with a punctate appearance (bottom left). e) Visualisation of effects on the MPT. Serum-starved MRC5 cells were loaded with 0.1 μM JCl for 30 min prior to addition of 10 μM peptide. Changes in mitochondrial permeability were viewed by laser scanning confocal microscopy (krypton/argon laser) using identical setting. Green channel: excitation 488 nm/emission 522 nm. Red channel: excitation 568 nm/emission 585 nm. Channels were collected separately to avoid cross over. Images were taken 5 min after addition of the peptide;

MRC5 cells [3] = assay: [35S]methionine incorporation into protein; assay type: cell-based; conditions: serum deprived cells, 30 minutes
Procedure: (§3) FIG. 16 illustrates that eIF4E binding peptide cell death is not through eIF4E's known role in mRNA translation. a) 72 h serum-starved MRC5 cells were treated with 100 μg/ml and 10 μg/ml cylcoheximide, 1 μg/ml and 0.1 μg/ml pactamycine or 10 μM Hu4G peptide for 2 h prior to a MTT assay. Cells were pulsed labelled with [^35S]methionine for 30 min after addition of the inhibitors/peptide. The incorporation of [^35S]methionine into protein was determined following hot trichloroacetic acid precipitation. b) 72 h serum-starved MRC5 cells were treated with 100 μg/ml cycloheximide (Chx), 1 μg/ml pactamycine (Pact) or c) MRC5 cells which had been starved of serum for 72 h were pre-incubated with 100 μg/ml cycloheximide or 1 μg/ml pactamycine for 30 min prior to addition of 10 μM Hu4G peptide. Cells were then further incubated for 1.5 h prior to a MTT assay. Results from three independent experiments (+/− SEM).
Serum deprived cells were treated with the general translation inhibitors Cyclohexamide or Pactamycin at indicated concentrations or the H4G peptide in the presence of 35S-Met for 30 minutes (see FIGS. 16a,b). Cells were lysed and the amount of translation was estimated by counting incorporated 35S-Met in precipitated protein fractions.

HaCaT cells = assay: cytotoxic or cytostatic effect on HaCaT cells; assay type: cell-based
MRC5 cells [4] = assay: cell survival by MTT assay; assay type: cell-based; conditions: various concentrations, 72 h serum-starved MRC5 cells, FIGS. 13b,c,d
Procedure: FIGS. 13a–d are graphs showing cell survival (% of control, untreated cells) as measured by MTT assay. a) Lane 1: 10 μM BP2 peptide added to serum-fed cells or Lane 2, 3, 4: 10 μM BP2 peptide added to 24 h, 48 h or 72 h serum-starved cells respectively. Lane 5: 10 μM BP2 YLL-AAA added to 72 h serum starved cells. Lane 6: 72 h serum starved cells incubated in 10% serum for 1 h prior to addition to 10 μM BP2 peptide. Lane 7: 72 h serum starved cells incubated with 100 μg/ml cycloheximide followed by a 1 h incubation with 10% serum prior to the addition of 10 μM BP2 peptide. In all cases the cells were then further incubated for 1 h in 0.1 mg/ml MTT. Cells were lysed in DMSO and absorbance was measured at […]. b–d) Varying concentrations of peptides were added to 72 h serum starved MRC5 cells. After 30 min incubation the cells were then further incubated for 1 h in 0.1 mg/ml MTT. Cells were lysed in DMSO and absorbance was measured at 570 nm.

[5] = test system: HaCaT, Swiss 3T3, RATI and IIeLa cells; assay: cell survival in other cell-types; assay type: cell-based; conditions: results not shown
MRC5 cells [6] = assay: MTT assay with general translation inhibitors (FIG. 16); assay type: cell-based; conditions: serum deprived cells
Procedure: as §3

MRC5 cells [7] = assay: DAPI staining of cell nuclei; assay type: cell-based; conditions: 20 μM, 40 min
Procedure: as §2

recombinant human eIF4E = recombinant human eIF4E (Homo sapiens, UniProt P06730); assay: in vitro binding (pull-down) assay with eIF4E; conditions: FIG. 4, FIG. 5
recombinant human eIF4E, sequence (P06730 whole entry): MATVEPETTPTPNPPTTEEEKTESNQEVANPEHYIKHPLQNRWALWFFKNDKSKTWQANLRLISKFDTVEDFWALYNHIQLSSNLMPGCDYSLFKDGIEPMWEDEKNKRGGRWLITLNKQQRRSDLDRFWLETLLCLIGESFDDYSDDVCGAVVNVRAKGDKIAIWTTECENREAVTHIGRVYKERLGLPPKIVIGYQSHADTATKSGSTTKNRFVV
Procedure: as §1
In order to study directly the role of eIF4E in cell transformation, a series of biotinylated synthetic peptides (Peptides synthesised by Cyclacel) corresponding to the eIF4E interacting domain (binding motif) of human eIF4G, and wheat eIF4G and alanine substituted peptides thereof were synthesised (see FIG. 12a) and tested for their capacity to interact with ^35S-Met labelled in vitro translated human eIF4E (NB. Peptides BP1 and BP1 YLM-AAA were not biotinylated). Peptides were coupled to streptavidin coated agarose beads by a N-terminus linked biotin group and washed in PBS/0.2% Tween 3× before being incubated for 1 hour at +4° C. with in vitro translated human eIF4E. Beads were washed as above and boiled for 5 min. in SDS loading buffer before the peptide bound proteins were separated on a 10% SDS gel. The bands were visualised by autoradiography.

MRC5 cells [8] = assay: mitochondrial permeability transition (JC1 dye, confocal microscopy); assay type: cell-based; conditions: 10 μM peptide, serum-starved MRC5 cells
Procedure: as §2
An early event considered decisive in apoptosis is the opening of the mitochondrial permeability transition (MPT) pore (20–22). To characterise further the eIF4E-binding peptide-induced cell death, the development of the MPT was investigated in living MRC5 cells loaded with the fluorescent dye, JC1 (21).

MRC5 cells [9] = assay: peptide-induced cell death (apoptosis) in MRC5 cells; assay type: cell-based
Source text: FIG. 8 is a table illustrating the induction of apoptosis by eIF4G peptides in MRC5 cells;
FIG. 9 is a summary of the results of inhibition of eIF4G(413-424)-induced apoptosis;

MRC5 cells [10] = assay: FACS analysis of propidium iodide-stained cells; assay type: cell-based; conditions: 20 μM, 40 min

T1 sequence (P06730 whole entry): as above

Hu4G: biotinylated, penetratin-linked peptide of the eIF4E binding motif of human eIF4G (KKRYDREFLLGFRQIKIWFQNRRMKWKK; also: biotinylated)
binding of eIF4E in cell lysates [1]: bound eIF4E in cell lysates
cells fluoresced positive (TUNEL) (MRC5 cells [2]): 80%
incorporation of 35S-Met (translation) (MRC5 cells [3]): do not incorporate 35S-Met
time until cells began to die after peptide treatment (HaCaT cells; 60 h serum starved cells): ≤ 15 min
effect with short treatment (HaCaT cells; HaCaT cells, <24 h with 20 μM): no effect observed
cytotoxic or cytostatic effect (HaCaT cells; selected cell lines): exhibited a cytotoxic or cytostatic effect on selected cell lines
cell death / cell viability (MRC5 cells [4]): rapid, dose-dependent, cell death
cell survival [5]: rapid cell death
cell killing (MRC5 cells [6]): they die
nuclear condensation (MRC5 cells [7]): signs of nuclear condensation
binding to recombinant human eIF4E in vitro (recombinant human eIF4E): found to bind recombinant human eIF4E in vitro
changes in JC1 fluorescence (MPT pore opening) (MRC5 cells [8]): rapid increase
time to increase in green fluorescence with loss of orange fluorescence (MRC5 cells [8]): ≤ 5 min
effect of limited serum treatment on sensitivity to the peptide (MRC5 cells [9]; FIG. 9): Resistance
cell death (possibly by apoptosis) (MRC5 cells [9]; serum starved cell lines, FIG. 8): caused rapid cell death
DNA profile (MRC5 cells [10]): shift in the DNA profile from G0/1 to sub G0/1
